From patent US8551711B2, “Screening method of glutathione-increasing substance” (Teikyo University, priority 2006, dated 2013)

Experiments:
[1] = tested on: intracellular glutathione (GSH); experiment: Amount of intracellular glutathione in HEK293 cell assayed by ThioGlo-1; type: cell-based; conditions: conditions of FIG. 1, vs control group
Experimental: FIG. 2 The amount of intracellular glutathione (GSH) was quantitatively determined under the conditions of FIG. 1. Glutathione increased by the introduction of the GTRAP3-18 antisense oligonucleotide, and glutathione decreased by MeβCD.
(§1) By transiently introducing an antisense oligonucleotide of GTRAP3-18 into an HEK293 cell, the amount of GTRAP3-18 in the cell was decreased (FIG. 1). Next, the amount of intracellular glutathione was assayed by ThioGlo-1 (manufactured by Calbiochem). […] of the amount of GTRAP3-18 was confirmed by a western blot method. A cell into which a sense oligonucleotide had been introduced was used as a control group.

[2] = tested on: EAAC1 protein; experiment: Western blot of EAAC1 protein in mouse hippocampus after intraventricular administration; type: in vivo; conditions: administered in cerebral ventricle, vs control (buffer)
Experimental: (§2) FIG. 4 Results obtained by examining influences of EAAC1 siRNA against the expression of an EAAC1 protein of a mouse hippocampus cell. A) After homogenizing the cell, western blot was performed using an anti-EAAC1 antibody. B) The results of the western blot were digitalized and indicated in terms of a ratio to the buffer administration. The amount of EAAC1 decreased by the introduction of EAAC1 siRNA.
(§3) FIG. 6 Results obtained by examining influences of methyl-β-cyclodextrin (MeβCD) against the expression of a GTRAP3-18 protein of mouse hippocampus. A) After homogenizing the cell, western blot was performed using an anti-EAAC1 antibody, an anti-GTRAP3-18 antibody and an anti-actin antibody. B) The results of the western blot were digitalized and indicated in terms of a ratio to actin. GTRAP3-18 increased by MeβCD.
(§4) siRNA against GTRAP3-18 was administered (10 μg/h) in a cerebral ventricle of a mouse.

[3] = tested on: GTRAP3-18 protein; experiment: Western blot of GTRAP3-18 protein in mouse hippocampus after intraventricular administration; type: in vivo; conditions: administered in cerebral ventricle (siRNA 10 μg/h, after one week), vs control (buffer)
Experimental: as §2, with “3” for “4”, “GTRAP3-18” for “EAAC1”, “a GTRAP3-18” for “an EAAC1”, “anti-GTRAP3-18” for “anti-EAAC1”
as §3, §4
On the other hand, when methyl-β-cyclodextrin (MeβCD) was administered in a cerebral ventricle of a mouse, the amount of GTRAP3-18 in the hippocampus cell increased as compared with the control group (FIG. 6).

[4] = tested on: glutathione in hippocampus; experiment: Amount of glutathione in mouse hippocampus (GSH reductase/DTNB, absorbance at 412 nm); type: in vivo; conditions: administered in cerebral ventricle, corrected by tissue weight, vs control
Description: FIG. 5 Results obtained by quantitatively determining the amount of glutathione in hippocampus under the conditions of FIGS. 3 and 4. The amount of glutathione of hippocampus decreased by the intraventricular administration of EAAC1 siRNA, whereas the amount of glutathione increased by GTRAP3-18 siRNA.
FIG. 7 The amount of intracellular glutathione (GSH) was quantitatively determined under the conditions of FIG. 6. Glutathione decreased by MeβCD.
Next, after decreasing the amount of GTRAP3-18 or EAAC1 in the hippocampus cell, the amount of glutathione was assayed. That is, an extract from the hippocampus tissue was mixed with a reaction solution containing EDTA (ethylenediaminetetraacetic acid), GSH reductase, DTNB (5,5′-ditiobis-nitrobenzoic acid) and NADPH, and an absorbance at 412 nm was measured. After determining a concentration by using an absorbance of a GSH standard solution, it was corrected by a tissue weight.

[5] = tested on: EAAC1; experiment: Western blot of EAAC1 amount in HEK293 cell; type: cell-based; conditions: ratio to actin, oligonucleotide introduced or 250 μM MeβCD
Experimental: (§5) FIG. 1 Results obtained by examining influences of a GTRAP3-18 antisense oligonucleotide and methyl-β-cyclodextrin (MeβCD) against the expression of a GTRAP3-18 protein of an HEK293 cell. A GTRAP3-18 sense oligonucleotide (GTRAP3-18(S)) or an antisense oligonucleotide (GTRAP3-18(As)) was introduced into an HEK293 cell, or 250 μM of methyl-β-cyclodextrin (MeβCD) was made to act thereon. A) After homogenizing the cell, western blot was performed using an anti-EAAC1 antibody, an anti-GTRAP3-18 antibody and an anti-actin antibody. B) The results of the western blot were digitalized and indicated in terms of a ratio to actin. GTRAP3-18 decreased by the introduction of the GTRAP3-18 antisense oligonucleotide, and GTRAP3-18 increased by MeβCD.

[6] = tested on: GTRAP3-18 protein; experiment: Western blot of GTRAP3-18 protein expression in HEK293 cell; type: cell-based; conditions: ratio to actin, oligonucleotide transiently introduced or 250 μM MeβCD, vs control (sense oligonucleotide)
Experimental: as §5, §1
On the other hand, it was confirmed by a western blot method that when methyl-β-cyclodextrin (MeβCD) was added to HEK293 cell, the amount of GTRAP3-18 increased as compared with the control group (FIG. 1).

[7] = listed as methyl-β-cyclodextrin (MeβCD)

Substance: methyl-β-cyclodextrin [MeβCD]
- amount of intracellular glutathione (GSH) [1]: decreased
- amount of intracellular glutathione (GSH) [1, 7]: significantly decreased
- amount of EAAC1 in hippocampus cell [2]: did not change
- amount of GTRAP3-18 in hippocampus cell [3]: increased
- amount of glutathione in hippocampus [4]: decreased
- amount of glutathione in hippocampus [4, 7]: significantly decreased
- amount of EAAC1 [5]: did not change
- amount of GTRAP3-18 in the cell [6]: increased
